Tested on: Caco-2 permeability, B->A Papp, LC-MS/MS
Assay: Inhibitors of Bloom's syndrome helicase: Caco-2 Permeability Profiling Assay
Conditions: hits give high values
Description: Survival of cells and the faithful propagation of the genome depend on elaborate mechanisms of detecting and repairing DNA damage. Treatment of advanced cancer relies on radiation therapy or chemotherapy, which kill cancer cells by causing extensive DNA damage. It is often found, that cancer cells develop resistance to therapy through enhanced activity of DNA repair functions; this has led to an increased interest in developing drugs that interfere with DNA repair, which could sensitize cancer cells to conventional therapy. Bloom syndrome helicase (BLM), is important in resolving abnormal DNA structures formed during replication or homologous recombination. Shutting down the expression of BLM leads to chromosomal instability and higher radiation sensitivity in cultured cells. This permeability assay predicts the in vivo absorption of the lead across the intestinal lining by using a Caco-2 cell line and measuring the lead's […]. […] NIH Chemical Genomics Center [NCGC] NIH Molecular Libraries Probe Production Centers Network [MLPCN] MLSCN Grant: MH087284 PI Name: Dr. Opher Gileadi, Structural Genomics Consortium, University of Oxford, UK
1. […] The T0, LY and T90, LY plates are read by FlexStation 3 at excitation of 485 nm and emission of 535 nm to determine LY permeability. […]

permeability B->A Papp: 1 10^-6 cm/s
Compound: O=C(Nc1ccc(F)c(C(F)(F)F)c1)Nc1nnc(-c2ccncc2)s1

Reference: PubChem BioAssay AID504737 (National Center for Advancing Translational Sciences (NCATS), 2011)
